Data: patent US6479460B1, “Synthetic peptides and pseudopeptides having osteogenic activity and pharmaceutical compositions containing the same” (Yissum Research Development Company of the Hebrew …, priority 1996, dated 2002)
Entries after “also recorded” stand apart in the source; their conditions may differ. Where no end group is shown, it is not given here. [ ]: non-standard residue; d: D form. The star is where a group is joined. Desaminotyrosyl = O=C(CCc1ccc(O)cc1)*; NMeY = CN[C@@H](Cc1ccc(O)cc1)C(=O)O; NHCH2CH2OMe = COCCN*; GABA = NCCCC(=O)O; βAla = NCCC(=O)O

How the values were obtained:
[1] = test system: fibroblastic NIH 3T3 cells; assay: Proliferation assay, fibroblastic NIH 3T3 cells; assay type: cell-based; details: analog concentration 10^−11M; mean cell number relative to positive control OGP(1-14) = 1.00
Source text: (§1) Some of the analogs were subjected to a dose response analysis.

[2] = test system: osteoblastic MC3T3 E1 cells; assay: Proliferation assay, osteoblastic MC3T3 E1 cells; assay type: cell-based; details: for analog concentration evoking the peak inhibitory response / anti-proliferative activity (in words): absence of exogenous OGP, FIG. 8; for Relative in vitro potency (95% confidence limit) MC3T3 E1 cells: analog concentration 10^−13M, mean cell number relative to positive control OGP(1-14) = 1.00
Source text: as §1

[3] = test system: osteoblastic MC3T3 E1 cells; assay: Inhibition of stimulatory effect of optimal OGP dose on MC3T3 E1 cells (FIG. 7); assay type: cell-based; details: cultures treated with 10^−13M synthetic OGP(1-14) plus antagonist
Experimental: All other cultures were treated with 10^−13M synthetic OGP(1-14) (SEQ ID NO: 1) and the indicated dose of antagonist. Data are mean±SE obtained in three culture wells per condition.
(§2) The effect of OGP analogs on osteoblastic MC3T3 E1 and fibroblastic NIH 3T3 cell proliferation was measured as before [Bab, I., et al (1992) EMBO J. 11:1867]. Some of the analogs were subjected to a dose response analysis. Otherwise the analog concentration was 10^−13M and 10^−11M in the MC3T3 E1 and NIH3T3 cell cultures, respectively. The mean cell number in triplicate culture wells was expressed as percent of a positive control triplicate dosed with OGP(1-14) (SEQ ID NO: 1). Experiments testing one dose per cell line were repeated at least four times and the activity of individual analogs expressed as the mean of results and 95% confidence limit obtained in these repetitive experiments.

[4] = test system: osteoblastic MC3T3 E1 and fibroblastic NIH 3T3 cells; assay: Proliferation assay, text statements not split by cell line; assay type: cell-based; details: for OGP-like proliferative activity (in words): in vitro, compared to OGP(1-14) or parent analog
Experimental: as §2

ovariectomized rats = assay: Number of bone marrow derived osteoblastic colonies from ovariectomized rats; assay type: in vivo, Sabra rats; details: OVX rats, 100 ng/day/rat subcutaneous daily for eight weeks, FIG. 6
Experimental: Twenty five female Sabra rats weighing 250 g each were subjected to bilateral ovariectomy (OVX). Additional five control animals underwent sham OVX. All animals were left untreated for 30 days. Then the OVX animals were divided into five groups, each consisting of five rats. All animals were injected subcutaneously in the nape daily for eight weeks with following solutions: One group was given to OGP(10-14) (SEQ ID NO: 61), 100 ng/day/rat. A second group was given desamino[Tyr^10]OGP(10-14) (SEQ ID NO: 4), 100 ng/day/rat. A third group was given c(Tyr-Gly-Phe-Gly-Gly) (SEQ ID NO: 35), 100 ng/day/rat. The fourth group was given retro OGP ([…] (SEQ ID NO: 60), 300 ng/day/rat. All compounds were dissolved in PBS. An additional control OVX group was given the PBS solvent only. After termination of treatment the animals were killed and the femoral and tibial bone marrow from both posterior limbs was pooled and transferred to alpha minimal essential medium (αMEM). Bone marrow cell cultures were set in 35 mm dishes, 10 dishes per animal, as described previously [Rickard, D. J., et al (1994) Biology, 161:218]. The total number of fibroblastic colonies (CFU-f) formed was determined after three weeks in culture. Immediately after, the CFU-f cultures were stained for alkaline phosphates and co-stained for mineral with alizarin-red-S. The alizarin-red-S positive colonies were considered osteoblastic. Their frequency was expressed as their percentage of the total numbers of colonies. The value for each animal was calculated as the mean percentage obtained in the 10 dishes.

ovariectomized mice = assay: Osteogenic effect of OGP analogs in ovariectomized mice; assay type: in vivo, C57B1/6 mice; details: OVX mice, subcutaneous daily for six weeks, proximal tibial metaphysis, FIG. 5
Experimental: Thirty two female C57B1/6 mice weighing 25 gm underwent conventional bilateral ovariectomy (OVX). Additional eight control animals were subjected to sham OVX: the anterior abdominal wall was opened and the ovaries exposed but left intact. All animals were left untreated for 30 days. The OVX animals were then divided into four groups each consisting of eight mice. All animals were injected subcutaneously in the nape daily for six weeks with the following solutions: One group was given OGP(1-14) (SEQ ID NO: 1), 30 ng/day/mouse. A second group received OGP(10-14) (SEQ ID NO: 61), 10 ng/day/mouse. A third group was given desamino[Tyr^10]OGP(10-14) (SEQ ID NO: 4). All compounds were dissolved in phosphate buffered saline (PBS). An additional control OVX group was given the PBS solvent only. One day after termination of treatment the animals were killed and the tibial bones separated, fixed in phosphate buffered formalin and subjected to conventional decalcified histological processing. Sections through the midsagital region of the tibia were stained with Masson trichrome. Bone volume was determined in the secondary spongiosa of the proximal metaphysis in two sections 200-300 μm apart from each other in one tibia from each animal using an automated computerized image analyzer. The value for each animal was the mean reading from the two sections.

[5] = listed as [N(CH3)-Tyr^10]OGP(9-14)
[6] = listed as c[Tyr-Gly-Phe-Gly-Gly]

Substance | Relative in vitro potency (95% confidence limit) NIH 3T3 cells [1] | Relative in vitro potency (95% confidence limit) MC3T3 E1 cells [2] | OGP-like proliferative activity (in words) [4] | other results
Leu-N(CH3)-CH(CH2C6H4(OH))-C(O)-Gly-Phe-Gly-Gly (L[NMeY]GFGG) [N(Me)-[Tyr^10]OGP(9-14)] | −0.32 | −0.34 |  | analog concentration evoking the peak inhibitory response [2]: 10^−13 M; anti-proliferative activity (in words) [2]: inhibit osteoblastic MC3T3 E1 cell proliferation dose dependently at low concentrations with reversal of this inhibition at high doses; anti-proliferative activity (in words) [2, 5]: anti-proliferative activity; inhibition of stimulation by optimal OGP dose / OGP antagonism (in words) [3]: highly potent OGP antagonist; inhibition of stimulation by optimal OGP dose / OGP antagonism (in words) [3, 5]: inhibitory effect at low doses
Tyr-Gly-Phe-Gly-Asp (YGFGD) [[Asp^14]OGP(10-14)] | −0.28 | −0.39 |  | analog concentration evoking the peak inhibitory response [2]: 10^−13 M; anti-proliferative activity (in words) [2]: anti-proliferative activity; also recorded: inhibit osteoblastic MC3T3 E1 cell proliferation dose dependently at low concentrations with reversal of this inhibition at high doses; inhibition of stimulation by optimal OGP dose / OGP antagonism (in words) [3]: inhibitory effect at low doses
[Pro^11]OGP(10-14) (YPFGG) | 0.96 | 0.89 |  | OGP-like proliferative activity (in words) ([4]; listed as Table 5, analog 2): remained essentially unaltered
c(Gly-Gly-Phe-Gly-Tyr) (GGFGY; cyclic) | 1.02 | 0.95 | preserved or slightly improved its in vitro activity | 
c(Tyr-Gly-Phe-Gly-Gly) (YGFGG; cyclic) | 1.12 | 0.79 | preserved or slightly improved its in vitro activity | OGP-like proliferative activity (in words) [4, 6]: preserves the OGP-like in vitro activity; reversal of reduction in osteoprogenitor cells / osteoblastic colonies (in words) (ovariectomized rats): improved over OGP(10-14); reversal of reduction in osteoprogenitor cells / osteoblastic colonies (in words) (ovariectomized rats; [6]): improved in vivo activity
c(β-Ala-Tyr-Gly-Phe-Gly-Asp)-OH ([βAla]YGFGD-OH; lactam (positions not given here); also: cyclic, closure site not given here) [c(β-Ma-Tyr-Gly-Phe-Gly-Asp)-OH] | -0.19 | −0.08 | essentially nil | 
c(γ-Abu-Tyr-Gly-Phe-Gly-Asp)-OH ([GABA]YGFGD-OH; lactam (positions not given here); also: cyclic, closure site not given here) | 0.07 | 0.13 | essentially nil | 
cyclo(GG[dF]G[dY]) | 1.16 | 1.03 | preserved or slightly improved its in vitro activity | 
cyclo([dY]G[dF]GG) | 0.84 | 0.69 | retained a considerable level of proliferative activity | OGP-like proliferative activity (in words) ([4]; listed as c[D-Tyr-Gly-D-Phe-Gly-Gly]): considerable level of proliferative activity
desamino Tyr-Gly-Phe-Gly-Gly ([Desaminotyrosyl]GFGG) [desamino[Tyr^10]OGP(10-14)] | 0.66 | 0.77 |  | reversal of trabecular bone loss (in words) (ovariectomized mice): either similar or superior to the parent oligopeptides; also recorded: either similar or superior to those of OGP(1-14); retention of OGP-like activity ([4]; summary of Table 1): approximately 70%; reversal of reduction in osteoprogenitor cells / osteoblastic colonies (in words) (ovariectomized rats): either similar or superior to the parent oligopeptides; also recorded: either similar or superior to those of OGP(1-14)
desamino[Tyr^10]OGP(10-13)—NH(CH2)2OMe ([Desaminotyrosyl]GFG-NHCH2CH2OMe; SMILES COCCNC(=O)CNC(=O)[C@H](Cc1ccccc1)NC(=O)CNC(=O)CCc1ccc(O)cc1) | 0.06 | 0.03 | essentially nil | 
